{
  "source": "patent US20230190870A1",
  "about": "“Method for Treating Lysosomal Storage Diseases with Histatin Peptides” (THE BOARD OF TRUSTEES OF THE UNIVERSITY OF ILLINOIS, priority 2020, published 2023)",
  "key": {"[1]": {"molecular_target": "T1, full-length recombinant TMEM97 (HEK293 cells) (Homo sapiens, UniProt Q5BJF2)", "T1 construct": "Recombinant full-length TMEM97 (also called MAC30, from HEK293 cells); purchased OriGene (Rockville, Md.); host or cells: HEK293 cells", "assay": "Surface plasmon resonance, immobilized full-length TMEM97", "format": "binding"}, "[2]": {"molecular_target": "T2, Synthetic TMEM97 (108-176) (Homo sapiens, UniProt Q5BJF2)", "T2 construct": "Three peptides, TMEM97 (108-176), TMEM97 (108-143) and TMEM97 (144-176), were synthesized; made in house; host or cells: chemical solid-phase synthesis (Fmoc, Wang resin)", "T2 sequence (Q5BJF2 108-176)": "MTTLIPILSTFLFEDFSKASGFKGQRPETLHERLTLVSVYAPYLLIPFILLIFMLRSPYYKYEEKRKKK", "assay": "Surface plasmon resonance, immobilized synthetic TMEM97 (108-176)", "format": "binding", "conditions": "SPR", "procedure": "(§1) Surface Plasmon Resonance (SPR). Recombinant full-length TMEM97 (also called MAC30, from HEK293 cells) and GST-TMEM97 (108-176, recombinant GST-C terminal from wheat germ) proteins were purchased from OriGene (Rockville, Md.) and Abnova (Taipei City, Taiwan), respectively. Three peptides, TMEM97 (108-176), TMEM97 (108-143) and TMEM97 (144-176), were synthesized. All proteins and peptides were initially prepared in HBS buffer containing 10 mM HEPES, pH 7.4, 150 mM NaCl, and 0.05% surfactant P20. The CM5 sensor surface was first activated by 1-ethyl-3-(3-dimethylaminopropyl) carbodiimide hydrochloride (EDC)/N-hydroxy succinimide (NHS) mixture using a Biacore T200 or Biacore 8K instrument (GE Healthcare). […] Flow channels 1 and 3 were used as references.\n(§2) The three synthesized peptides were diluted to 50 μg/mL in 10 mM sodium acetate at pH 4.0 and immobilized to flow channels 2, 3 and 4, respectively, on another sensor chip. The unmodified surfaces on a flow channel 1 were used as a reference control. Histatin solutions with a series of increasing concentrations (0.78-25 μM at 2-fold dilution) were applied to all four channels at a 30 μL/minute flow rate at 25° C. The data were double-referenced with reference channel and zero concentration responses, and reference subtracted sensorgrams were fitted with 1 to 1 Langmuir kinetic model using a Biacore T200 evaluation software V3.0 or Insight evaluation software. The equilibrium dissociation constants ([…]) were determined from two rate constants (KD=kd/ka).\n(§3) To determine more precisely which segment of TMEM97 is necessary for binding of Hst1, multiple synthetic fragments of TMEM97 were generated (Table 6) and binding to Hst1 was tested using SPR. […] Smaller fragments of the C-terminal of TMEM97 were then constructed to represent the (predicted) luminal (108-143) and cytoplasmic (144-176) exposed segments of the C-terminus of TMEM97 based on modeling experiments previously described. […] SPR results for Hst1 were confirmed using ITC as an orthogonal analytical method.\n(§4) To determine the region(s) of Hst1 that mediate binding to TMEM97, SPR testing was performed with various Hst1 fragments and either recombinant TMEM97 (GST-tagged, wheat-germ derived, C-terminal fragment TMEM97 (108-176)) or synthesized TMEM97 (TMEM97 (108-176), TMEM97 (108-143) and TMEM97 (144-176))."}, "[3]": {"molecular_target": "T3, Synthetic TMEM97 (144-176) (Homo sapiens, UniProt Q5BJF2)", "T3 construct": "made in house; host or cells: chemical solid-phase synthesis (Fmoc, Wang resin)", "T3 sequence (Q5BJF2 144-176)": "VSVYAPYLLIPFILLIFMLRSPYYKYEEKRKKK", "assay": "Surface plasmon resonance, immobilized synthetic TMEM97 (144-176)", "format": "binding", "conditions": "SPR", "procedure": "as §1, §2, §3, §4"}, "[4]": {"test_system": "Synthetic TMEM97 (144-176)", "assay": "Surface plasmon resonance, immobilized synthetic TMEM97 (144-176)", "format": "binding", "conditions": "mutations E170A, E171A and E170A/E171A of TMEM97 (144-176)", "procedure": "as §1, §2, §3, §4"}, "TMEM97 (144-176)": {"molecular_target": "T4, TMEM97 (144-176) (Homo sapiens, UniProt Q5BJF2)", "T4 construct": "made in house; host or cells: chemical solid-phase synthesis (Fmoc, Wang resin)", "T4 sequence (Q5BJF2 144-176 limits assumed)": "as the sequence (Q5BJF2 144-176) above", "assay": "Isothermal titration calorimetry, C-terminal of TMEM97", "format": "binding", "conditions": "ITC; the C-terminal of TMEM97", "procedure": "Isothermal Titration Calorimetry (ITC). The three synthesized peptides, TMEM97 (108-176), TMEM97 (108-143) and TMEM97 (144-176) were prepared in ITC buffer (10 mM Tris, pH 7.4, 150 mM NaCl, 0.05% polysorbate 20) at 40 μM concentration and placed in the sample cell. All ITC experiments were performed while stirring at 395 rpm, in ITC buffer at 25° C. using a VP-ITC titration microcalorimeter from MicroCal™, LLC (Northampton, Mass.). The microsyringe was loaded with a Histatin 1 solution (500 μM in ITC buffer). All titrations were conducted using an initial injection of 2.5 μL followed by 35 identical injections of 5 μL with a duration of 16 seconds (per injection) and a spacing of 210 seconds between injections. The buffer control titration (Histatin 1 into buffer) signals were subtracted from the experimental data. The collected data were evaluated using NITPIC (NIH), SEDPHAT (NIH), and GUSSI (NIH).\nas §3"}, "[5]": {"test_system": "NPC knockout fibroblasts (NPC1−/−)", "assay": "Filipin and LAMP1 staining in NPC knockout fibroblasts", "format": "cell-based, human", "procedure": "In addition, cholesterol accumulation in wild type human skin fibroblasts or NPC knockout fibroblasts (NPC1^−/−) were evaluated with or without Hst1 treatment. […] Additionally, LAMP1 lysosomal marker accumulation in untreated NPC1^−/− cells were normalized with Hst1 treatment."}, "[6]": {"test_system": "Human corneal epithelial cells", "assay": "Cell viability of BAK-treated human corneal epithelial cells", "format": "cell-based", "conditions": "benzalkonium chloride (BAK) treatment", "source_text": "Apoptosis. […] BAK and hOsm are standard inducers of corneal epithelial and neuronal cell death and toxicity, phenomena which are associated with ocular surface pain and chronic pain syndromes."}},
  "note": "Square brackets hold non-standard residues; d marks the D form. Peptide text beside a SMILES is read from it. pS = N[C@@H](COP(=O)(O)O)C(=O)O",
  "data": [
    {"smiles": "CC(C)C[C@H](NC(=O)[C@H](Cc1ccc(O)cc1)NC(=O)[C@H](CC(N)=O)NC(=O)[C@H](CO)NC(=O)CNC(=O)[C@H](Cc1ccc(O)cc1)NC(=O)[C@H](CC(=O)O)NC(=O)CNC(=O)[C@H](Cc1ccc(O)cc1)NC(=O)[C@H](Cc1ccccc1)NC(=O)[C@@H]1CCCN1C(=O)[C@H](Cc1ccccc1)NC(=O)[C@H](CCC(=O)O)NC(=O)[C@H](CCCNC(=N)N)NC(=O)[C@H](Cc1c[nH]cn1)NC(=O)[C@H](CO)NC(=O)[C@H](Cc1c[nH]cn1)NC(=O)[C@H](Cc1c[nH]cn1)NC(=O)[C@H](CCCCN)NC(=O)[C@H](CCC(=O)O)NC(=O)[C@H](Cc1c[nH]cn1)NC(=O)[C@H](Cc1ccccc1)NC(=O)[C@H](CCCCN)NC(=O)[C@H](CCCNC(=N)N)NC(=O)[C@H](CCCNC(=N)N)NC(=O)[C@H](Cc1ccc(O)cc1)NC(=O)CNC(=O)[C@H](Cc1c[nH]cn1)NC(=O)[C@H](Cc1c[nH]cn1)NC(=O)[C@H](CCCNC(=N)N)NC(=O)[C@H](CCCCN)NC(=O)[C@H](CCC(=O)O)NC(=O)[C@H](Cc1c[nH]cn1)NC(=O)[C@H](COP(=O)(O)O)NC(=O)[C@@H](N)CC(=O)O)C(=O)N[C@@H](Cc1ccc(O)cc1)C(=O)N[C@@H](CC(=O)O)C(=O)N[C@@H](CC(N)=O)C(=O)O", "note": "[Hst1] (H-D[pS]HEKRHHGYRRKFHEKHHSHREFPFYGDYGSNYLYDN-OH; N-terminus and C-terminus assumed)", "values": [
      {"measurement": "% Rmax", "setting": "[1]; SPR", "value": 32, "unit": "%"},
      {"measurement": "Kd", "setting": "[1]; SPR, 25° C., 1 to 1 Langmuir kinetic model", "value": "1300 ± 300", "unit": "nM"},
      {"measurement": "effect of added DTG or haloperidol on Hst1 binding", "setting": "[1]; addition of either DTG or haloperidol", "value": "did not affect"},
      {"measurement": "% Rmax", "setting": "[2]", "value": 38, "unit": "%"},
      {"measurement": "Kd", "setting": "[2]", "value": 2400, "unit": "nM"},
      {"measurement": "% Rmax", "setting": "[2]; listed as Hst1(1-38)", "value": "(% Rmax = 23%)"},
      {"measurement": "% Rmax", "setting": "[3]", "value": 21, "unit": "%"},
      {"measurement": "Kd", "setting": "[3]", "value": 2400, "unit": "nM"},
      {"measurement": "% Rmax", "setting": "[3]; listed as Hst1(1-38)", "value": "(% Rmax = 22%)"},
      {"measurement": "effect of TMEM97 mutations on Hst1 binding", "setting": "[4]", "value": "did not affect"},
      {"measurement": "Kd", "setting": "TMEM97 (144-176)", "value": "460 ± 120", "unit": "nM"},
      {"measurement": "ΔH", "setting": "TMEM97 (144-176)", "value": "-790 ± 28", "unit": "kcal/mol"},
      {"measurement": "ΔS", "setting": "TMEM97 (144-176)", "value": "−2.28(±0.37)×10^3 cal/mol K"},
      {"measurement": "LAMP1 lysosomal marker accumulation", "setting": "[5]", "value": "normalized"},
      {"measurement": "cholesterol accumulation (Filipin stained cells)", "setting": "[5]", "value": "reduction in cholesterol accumulation"},
      {"measurement": "BAK-induced loss of cell viability", "setting": "[6]", "value": "abrogated"}
    ]}
  ]
}
